In US11066396B2 (priority 2016, dated 2021):
pIC50: −log10 of the molar value.

Tests used:
HDAC1 = HDAC1 (Homo sapiens (Human), UniProt Q13547); settings: read-out: HDAC1 IC50
HDAC5 = HDAC5 (Homo sapiens (Human), UniProt Q9UQL6); settings: read-out: HDAC5 IC50
HDAC8 = HDAC8 (Homo sapiens (Human), UniProt Q9BY41); settings: read-out: HDAC8 IC50
HDAC8, sequence (Q9BY41 whole entry): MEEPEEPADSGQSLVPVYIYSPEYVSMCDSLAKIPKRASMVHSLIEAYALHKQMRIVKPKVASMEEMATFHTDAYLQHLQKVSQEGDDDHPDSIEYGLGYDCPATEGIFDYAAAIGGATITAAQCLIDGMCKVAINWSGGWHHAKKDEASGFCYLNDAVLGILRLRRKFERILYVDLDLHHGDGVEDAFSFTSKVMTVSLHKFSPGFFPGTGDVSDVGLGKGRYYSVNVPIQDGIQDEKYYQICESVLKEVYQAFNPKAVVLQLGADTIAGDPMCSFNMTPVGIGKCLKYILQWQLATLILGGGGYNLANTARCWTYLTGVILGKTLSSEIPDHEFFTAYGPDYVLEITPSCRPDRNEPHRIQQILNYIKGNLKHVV

HDAC5, sequence (Q9UQL6 656-1122): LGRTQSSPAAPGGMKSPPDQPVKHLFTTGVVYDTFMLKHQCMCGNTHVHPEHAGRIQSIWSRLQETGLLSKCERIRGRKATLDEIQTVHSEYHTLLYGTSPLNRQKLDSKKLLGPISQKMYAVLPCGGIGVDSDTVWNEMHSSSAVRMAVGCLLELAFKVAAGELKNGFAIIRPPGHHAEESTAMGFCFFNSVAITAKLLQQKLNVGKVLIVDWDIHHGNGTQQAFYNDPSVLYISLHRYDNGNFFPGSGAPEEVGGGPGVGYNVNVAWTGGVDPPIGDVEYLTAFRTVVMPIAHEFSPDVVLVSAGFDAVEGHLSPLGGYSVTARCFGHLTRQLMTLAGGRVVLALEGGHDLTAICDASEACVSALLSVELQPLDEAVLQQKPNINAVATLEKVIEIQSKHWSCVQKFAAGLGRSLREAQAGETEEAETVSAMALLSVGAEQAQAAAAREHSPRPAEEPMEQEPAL
HDAC1, sequence (Q13547 whole entry): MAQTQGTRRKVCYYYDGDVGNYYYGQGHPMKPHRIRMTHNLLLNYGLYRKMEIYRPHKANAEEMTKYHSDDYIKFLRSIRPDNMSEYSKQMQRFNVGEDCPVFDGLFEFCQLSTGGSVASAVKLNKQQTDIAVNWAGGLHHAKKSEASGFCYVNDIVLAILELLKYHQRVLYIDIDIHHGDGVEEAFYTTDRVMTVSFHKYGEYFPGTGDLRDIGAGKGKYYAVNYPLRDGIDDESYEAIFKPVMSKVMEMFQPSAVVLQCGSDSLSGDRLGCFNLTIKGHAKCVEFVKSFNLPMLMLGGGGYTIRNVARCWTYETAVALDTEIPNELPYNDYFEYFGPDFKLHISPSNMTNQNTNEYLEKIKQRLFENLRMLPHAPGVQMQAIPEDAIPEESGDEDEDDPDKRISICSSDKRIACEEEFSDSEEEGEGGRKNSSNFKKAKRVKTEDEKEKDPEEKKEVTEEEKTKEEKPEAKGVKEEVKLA

SMILES	pIC50 (HDAC1)	pIC50 (HDAC5)	pIC50 (HDAC8)
Fc1cc(COc2[nH]nc3c2COCC3)ccc1-c1noc(C(F)(F)F)n1 [Example 249, 3-({3-fluoro-4-[5-(trifluoromethyl)-1,2,4-oxadiazol-3-yl]phenyl}methoxy)-2,4,6,7-tetrahydropyrano[4,3-c]pyrazole]	5.51	7.13	5.64
Fc1ccccc1OCc1ccc(-c2noc(C(F)(F)F)n2)cn1 [Example 251, 2-[(2-fluorophenoxy)methyl]-5-[5-(trifluoromethyl)-1,2,4-oxadiazol-3-yl]pyridine]	5.92	6.72	5.46
Nc1cccnc1COCc1ccc(-c2noc(C(F)(F)F)n2)c(F)c1 [Example 252, 2-[({3-fluoro-4-[5-(trifluoromethyl)-1,2,4-oxadiazol-3-yl]phenyl}methoxy)methyl]pyridin-3-amine]	5.59	6.92	5.35
Cc1ccc(NCc2ccc(-c3noc(C(F)(F)F)n3)c(F)c2)cn1 [Example 253, N-({3-fluoro-4-[5-(trifluoromethyl)-1,2,4-oxadiazol-3-yl]phenyl}methyl)-6-methylpyridin-3-amine]	5.77	7.19	5.41
Fc1cc(CNc2ccc3ccncc3c2)ccc1-c1noc(C(F)(F)F)n1 [Example 254, N-({3-fluoro-4-[5-(trifluoromethyl)-1,2,4-oxadiazol-3-yl]phenyl}methyl)isoquinolin-7-amine]	5.80	6.85	4.35
Cn1cnc2cc(COc3nccc(-c4noc(C(F)(F)F)n4)c3Cl)ccc21 [Example 255, 5-[({3-chloro-4-[5-(trifluoromethyl)-1,2,4-oxadiazol-3-yl]pyridin-2-yl}oxy)methyl]-1-methyl-1H-benzimidazole]	5.77	6.42	5.80
CN(C(=O)[C@@H]1CCC(=O)N1c1ccc(-c2noc(C(F)(F)F)n2)c(F)c1)C(C)(C)C [Example 340, N-tert-butyl-1-{3-fluoro-4-[5-(trifluoromethyl)-1,2,4-oxadiazol-3-yl]phenyl}-N-methyl-5-oxo-L-prolinamide]	4.51	5.74	4.57
CC1(C)CCCCN1C(=O)[C@@H]1CCC(=O)N1c1ccc(-c2noc(C(F)(F)F)n2)c(F)c1 [Example 343, (5S)-5-[(2,2-dimethylpiperidin-1-yl)carbonyl]-1-{3-fluoro-4-[5-(trifluoromethyl)-1,2,4-oxadiazol-3-yl]phenyl}pyrrolidin-2-one]	4.62	5.52	4.60
O=C(C1CCS(=O)(=O)CC1)N(Cc1ccc(-c2noc(C(F)(F)F)n2)cn1)c1cccc(C(F)(F)F)c1 [Example 456, N-({5-[5-(trifluoromethyl)-1,2,4-oxadiazol-3-yl]pyridin-2-yl}methyl)-N-[3-(trifluoromethyl)phenyl]tetrahydro-2H-thiopyran-4-carboxamide 1,1-dioxide]	6.44	5.57	5.60
O=C1COc2ccccc2N1Cc1ccc(-c2noc(C(F)(F)F)n2)cn1 [Example 462, 4-({5-[5-(trifluoromethyl)-1,2,4-oxadiazol-3-yl]pyridin-2-yl}methyl)-2H-1,4-benzoxazin-3(4H)-one]	6.82	8.02	5.62
Cc1nc2ccc(F)cc2n1Cc1ccc(-c2noc(C(F)(F)F)n2)cn1 [Example 465, 6-fluoro-2-methyl-1-({5-[5-(trifluoromethyl)-1,2,4-oxadiazol-3-yl]pyridin-2-yl}methyl)-1H-benzimidazole]	6.14	7.44	5.25
O=c1[nH]c2ccccc2n(Cc2ccc(-c3noc(C(F)(F)F)n3)cn2)c1=O [Example 469, 1-({5-[5-(trifluoromethyl)-1,2,4-oxadiazol-3-yl]pyridin-2-yl}methyl)-1,4-dihydroquinoxaline-2,3-dione]	7.07	7.66	5.85
CC(C)(C)OC(=O)[C@@H]1COCC(=O)N1c1ccc(-c2noc(C(F)(F)F)n2)c(F)c1 [Example 471, tert-butyl (3S)-4-{3-fluoro-4-[5-(trifluoromethyl)-1,2,4-oxadiazol-3-yl]phenyl}-5-oxomorpholine-3-carboxylate]	6.06	7.27	5.42
COCc1cccc(CCOc2cc(-c3noc(C(F)(F)F)n3)ccn2)c1 [Example 476, 2-{2-[3-(methoxymethyl)phenyl]ethoxy}-4-[5-(trifluoromethyl)-1,2,4-oxadiazol-3-yl]pyridine]	5.72	6.11	5.52
O=C(C1CCS(=O)(=O)CC1)N(Cc1ccc(-c2noc(C(F)(F)F)n2)c(F)c1)c1cccc(C(F)(F)F)c1 [Example 489, N-({3-fluoro-4-[5-(trifluoromethyl)-1,2,4-oxadiazol-3-yl]phenyl}methyl)-1,1-dioxo-N-[3-(trifluoromethyl)phenyl]-llambda~6~-thiane-4-carboxamide]	6.02	6.12	5.16
O=C(C1CCS(=O)(=O)CC1)N(Cc1ccc(-c2noc(C(F)(F)F)n2)cc1F)c1cccc(C(F)(F)F)c1 [Example 490, N-({2-fluoro-4-[5-(trifluoromethyl)-1,2,4-oxadiazol-3-yl]phenyl}methyl)-1,1-dioxo-N-[3-(trifluoromethyl)phenyl]-llambda~6~-thiane-4-carboxamide]	6.30	6.28	5.47
